Biological target: T1, soluble guanylate cyclase (sGC), α1 and β1 subunits of guanylate cyclase expressed in Sf9 cells (Homo sapiens, UniProt Q02108+Q02153)
T1 construct: made in house; host or cells: Sf9 insect cells (baculovirus co-infection)
T1 sequence (Q02108 1-690): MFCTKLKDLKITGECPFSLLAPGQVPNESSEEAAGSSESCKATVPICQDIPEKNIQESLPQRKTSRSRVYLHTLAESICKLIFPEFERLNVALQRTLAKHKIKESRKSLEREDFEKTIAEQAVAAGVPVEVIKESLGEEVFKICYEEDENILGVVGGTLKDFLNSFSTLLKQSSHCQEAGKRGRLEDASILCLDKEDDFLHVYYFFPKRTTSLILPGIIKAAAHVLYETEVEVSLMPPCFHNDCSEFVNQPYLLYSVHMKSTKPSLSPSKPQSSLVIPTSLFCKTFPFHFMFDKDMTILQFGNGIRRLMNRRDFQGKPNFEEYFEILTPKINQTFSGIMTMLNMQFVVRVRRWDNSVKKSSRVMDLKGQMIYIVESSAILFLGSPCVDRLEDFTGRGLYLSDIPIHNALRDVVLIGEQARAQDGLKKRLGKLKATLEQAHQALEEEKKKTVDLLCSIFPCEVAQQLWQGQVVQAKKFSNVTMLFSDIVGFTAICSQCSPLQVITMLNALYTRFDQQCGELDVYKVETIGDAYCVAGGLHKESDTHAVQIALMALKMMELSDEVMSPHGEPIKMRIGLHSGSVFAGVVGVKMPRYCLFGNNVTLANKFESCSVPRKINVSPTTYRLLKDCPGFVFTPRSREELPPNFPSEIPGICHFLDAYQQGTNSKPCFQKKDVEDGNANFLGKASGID
T1 sequence (Q02153 1-619): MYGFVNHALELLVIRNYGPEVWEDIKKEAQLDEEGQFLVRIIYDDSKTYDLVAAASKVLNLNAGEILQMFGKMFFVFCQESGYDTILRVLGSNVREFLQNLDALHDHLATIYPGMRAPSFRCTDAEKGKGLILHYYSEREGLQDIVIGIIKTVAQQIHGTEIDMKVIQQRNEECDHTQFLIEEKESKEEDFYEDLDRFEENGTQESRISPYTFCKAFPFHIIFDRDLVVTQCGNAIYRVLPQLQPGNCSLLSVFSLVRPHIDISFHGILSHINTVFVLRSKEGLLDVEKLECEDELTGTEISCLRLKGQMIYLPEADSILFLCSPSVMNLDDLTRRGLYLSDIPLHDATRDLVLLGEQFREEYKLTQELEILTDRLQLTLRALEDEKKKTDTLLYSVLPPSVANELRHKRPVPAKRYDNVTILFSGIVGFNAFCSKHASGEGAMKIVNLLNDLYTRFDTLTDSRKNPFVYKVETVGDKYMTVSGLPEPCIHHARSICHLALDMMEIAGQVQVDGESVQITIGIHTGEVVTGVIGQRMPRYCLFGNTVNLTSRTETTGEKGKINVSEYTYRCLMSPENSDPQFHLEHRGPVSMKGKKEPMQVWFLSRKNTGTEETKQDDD
Test: Guanylate cyclase assay (formation of cyclic GMP from GTP)
Assay type: biochemical
Settings: for Mean activation at 100 μM: (activity of compound at 100 μM with 1 μM SNP)−(activity of compound at 100 μM)/(activity of SNP at 1 μM)−(basal activity of sGC); for Mean efficacy of compound combined with 1 μM of SNP, [%]: compound at 100 μM with 1 μM sodium nitro prusside (SNP); for Mean efficacy of compound combined with 1 μM of SNP, [%] / Emax at 100 µM: normalized with the activity of 100 μM YC-1 (without SNP) as 100%; for Emax at 100 µM: compound at 100 μM without SNP, read-out: Mean basal efficacy of compound alone at 100 μM, [%]
Experimental: Sf9 cells were cultured in Sf-90011 medium supplemented with 10% (v/v) fetal calf serum at 28° C. to give a count of 6×10^5 cells/ml. The cells were then infected with a mixture of the virus stocks for the α1 and β1 subunits of guanylate cyclase at a multiplicity of infection of 0.1 pfu/cell. The cells were harvested 72 hours after infection and were pelleted by centrifugation. The resulting cell pellets were homogenized with Polytron homogenizer in 3 volumes of 20 mM Tris-HCl (pH 7.6) containing 1 mM EDTA, 5 mM dithiothreitol, 90 mM NaCl, 10% glycerol, and protease inhibitors mix (Roche Molecular Biochemicals). The homogenate was centrifuged at 50,000×g for 60 minutes and the supernatant was aliquotted and stored at −80° C.
Compounds of the present invention were dissolved in DMSO to make 100 mM and saved as stocks at −20° C. When compounds were tested, prepared 10-fold concentrated solutions with 10% DMSO. Then added 10 μl of 10-fold concentrated compound solutions to the reaction mixture of total 100 μl.
Guanylate cyclase activity was measured by the formation of cyclic GMP from GTP in a total volume of 100 μl. Guanylate cyclase-expressed Sf9 cell high-speed supernatant was used as an enzyme source for the assay. The reaction mixture containing 0.1 μl enzyme (Sf9 high-speed sup), compound solution, 50 mM Tris-HCl (pH 7.6), 4 mM MgCl2, 0.5 mM IBMX, 15 mM creatine phosphate, 20 μg creatine phosphokinase, 0.1% BSA and 1 mM GTP was incubated at 37° C. for 15 minutes. After the reaction, 0.9 ml of 50 mM sodium acetate buffer (pH 5.8) was added followed by boiling for 3 minutes to stop the reaction. The solution was centrifuged at 3000 rpm for 15 minutes at room temperature and cyclic GMP in 20 μl of the resulting supernatant was measured according to the protocol of Amersham cyclic GMP enzymeimmunoassay system (purchased from Sigma, catalogue number RPN 226).
Compounds of the present invention were tested at 100 μM with and without 1 μM sodium nitro prusside (SNP). 1-Benzyl-3-hydroxymethyl-2-furylindazole (YC-1) was included as a standard for each assay. The data was normalized with the activity of 100 μM YC-1 (without SNP) as 100%. Mean basal efficacy, in Table 1, was expressed as a percentage of 100 μM YC-1 (without SNP).
The mean activation, in Table 1, was calculated based on the formula: (activity of compound of the present invention at 100 μM with 1 μM SNP)−(activity of compound of the present invention at 100 μM)/(activity of SNP at 1 μM)−(basal activity of sGC).

| Mean activation at 100 μM | Mean efficacy of compound combined with 1 μM of SNP, [%] | Emax at 100 µM [%] | SMILES |
| --- | --- | --- | --- |
| 6.3 | 199 | 90 | O=C(/C=C/c1cccnc1Sc1ccccc1Cl)NC1CCC(O)CC1 (stereo not drawn) [Example 20, (2E)-3-{2-[(2-chlorophenyl)thio]-3-pyridinyl}-N-(4-hydroxycyclohexyl)acrylamide] |
| 4.1 | 106 | 45 | CC(C)CSc1ccccc1/C=C/C(=O)NC1CCCCC1O (stereo not drawn) [Example 21, (2E)-N-(2-hydroxycyclohexyl)-3-[2-(isobutylthio)phenyl]acrylamide] |
| 3.9 | 169 | 158 | O=C(/C=C/c1ccccc1SC1CCCC1)NC1CCCCC1O (stereo not drawn) [Example 22, (2E)-3-[2-(cyclopentylthio)phenyl]-N-(2-hydroxycyclohexyl)acrylamide] |
| 2.7 | 187 | 174 | O=C(/C=C/c1ccccc1SC1CCCCC1)NC1CCCCC1O (stereo not drawn) [Example 23, (2E)-3-[2-(cyclohexylthio)phenyl]-N-(2-hydroxycyclohexyl)acrylamide] |
| 1.6 | 17 | 4 | CC(C)Sc1ccccc1/C=C/C(=O)NC1CCC(O)CC1 (stereo not drawn) [Example 24, (2E)-N-(4-hydroxycyclohexyl)-3-[2-(isopropylthio)phenyl]acrylamide] |
| 9.5 | 430 | 242 | O=C(/C=C/c1ccccc1SC1CCCC1)NC1CCC(O)CC1 (stereo not drawn) [Example 25, (2E)-3-[2-(cyclopentylthio)phenyl]-N-(4-hydroxycyclohexyl)acrylamide] |
| 7.9 | 506 | 353 | O=C(/C=C/c1ccccc1SC1CCCCC1)NC1CCC(O)CC1 (stereo not drawn) [Example 26, (2E)-3-[2-(cyclohexylthio)phenyl]-N-(4-hydroxycyclohexyl)acrylamide] |
| 8.3 | 278 | 115 | CCCCCSc1ccccc1/C=C/C(=O)NC1CCC(O)CC1 (stereo not drawn) [Example 27, (2E)-N-(4-hydroxycyclohexyl)-3-[2-(pentylthio)phenyl]acrylamide] |
| 2.6 | 18 | 6 | Cc1ccc(/C=C/C(=O)NC2CCC(O)CC2)c(Sc2ccc(Cl)cc2)n1 (stereo not drawn) [Example 28, (2E)-3-{2-[(4-chlorophenyl)thio]-6-methyl-3-pyridinyl}-N-(4-hydroxycyclohexyl)acrylamide] |
| 3.7 | 187 | 93 | CC(CCCC(C)(C)O)NC(=O)/C=C/c1ccccc1Sc1ccc(Cl)cc1 (stereo not drawn) [Example 31, (2E)-3-{2-[(4-chlorophenyl)thio]phenyl}-N-(5-hydroxy-1,5-dimethylhexyl)acrylamide] |
| 10.5 | 78 | 27 | CCNC(=O)/C=C/c1ccccc1Sc1ccc(Cl)cc1 [Example 32, (2E)-3-{2-[(4-chlorophenyl)thio]phenyl}-N-ethylacrylamide] |
| 6.9 | 38 | 7 | CCCCNC(=O)/C=C/c1ccccc1Sc1ccc(Cl)cc1 [Example 33, (2E)-N-butyl-3-{2-[(4-chlorophenyl)thio]phenyl}acrylamide] |
| 6.9 | 219 | 113 | O=C(/C=C/c1ccccc1Sc1ccc(Cl)cc1)NCCCCO [Example 34, (2E)-3-{2-[(4-chlorophenyl)thio]phenyl}-N-(4-hydroxybutyl)acrylamide] |
| 6.3 | 228 | 49 | O=C(/C=C/c1ccccc1Sc1ccc(Cl)cc1)NCCCCCO [Example 35, (2E)-3-{2-[(4-chlorophenyl)thio]phenyl}-N-(5-hydroxypentyl)acrylamide] |
| 9.2 | 212 | 66 | Cc1ccc(Sc2ccccc2/C=C/C(=O)NCCCCO)cc1 [Example 36, (2E)-N-(4-hydroxybutyl)-3-{2-[(4-methylphenyl)thio]phenyl}acrylamide] |
| 30.6 | 405 | 70 | CC(O)CNC(=O)/C=C/c1ccccc1Sc1ccc(Cl)cc1 (stereo not drawn) [Example 37, (2E)-3-{2-[(4-chlorophenyl)thio]phenyl}-N-(2-hydroxypropyl)acrylamide] |
| 19.0 | 259 | 60 | CC(O)CCNC(=O)/C=C/c1ccccc1Sc1ccc(Cl)cc1 (stereo not drawn) [Example 38, (2E)-3-{2-[(4-chlorophenyl)thio]phenyl}-N-(3-hydroxybutyl)acrylamide] |
| 19.3 | 305 | 73 | CCC(O)CNC(=O)/C=C/c1ccccc1Sc1ccc(Cl)cc1 (stereo not drawn) [Example 39, (2E)-3-{2-[(4-chlorophenyl)thio]phenyl}-N-(2-hydroxybutyl)acrylamide] |
| 6.3 | 366 | 100 | O=C(/C=C/c1ccccc1Sc1ccc(Cl)cc1)NC1CCCCC1O (stereo not drawn) [Example 40, (2E)-3-{2-[(4-chlorophenyl)thio]phenyl}-N-(2-hydroxycyclohexyl)acrylamide] |
| 3.8 | 69 | 5 | O=C(/C=C/c1c(F)cccc1Sc1ccc(Cl)cc1)NCCCCO [Example 41, (2E)-3-{2-[(4-chlorophenyl)thio]-6-fluorophenyl}-N-(4-hydroxybutyl)acrylamide] |

Source: patent US20040121994A1, “Novel amides that activate soluble guanylate cyclase” (priority 2002, published 2004)
